Results published in ChEMBL document CHEMBL1201862, “PubChem BioAssay data set” (2004).
The source made the active and inactive calls.

Columns and labels:
[1] = HIV-1 AD8 envelope cell-cell fusion blockers – cherry-pick, dose response (AID 652062); format: functional, cell-based;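 note: luciferase signal from cell-cell fusion driven by HIV-1 clade B AD8 Env; potency is for inhibitors of fusion seen as a drop in luminescence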
[2] = blockers of HIV-1 ZM109 envelope-driven cell-cell fusion – HeLa effector, CEM target cells, luciferase, cherry-pick, dose response (AID 652058); format: functional, cell-based;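 note: luciferase signal from HIV-1 Env mediated cell-cell fusion of effector and target cells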
[3] = blockers of HIV-1 envelope-mediated cell-cell fusion – cherry-pick, dose response (AID 652057); format: functional, cell-based
[4] = reduction of Shn3 3'UTR-driven luciferase in osteoblasts – cell-based, Clone20 osteoblasts, firefly luciferase, cherry-picked, dose response (AID 624132); format: functional;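 note: firefly luciferase luminescence from reporter carrying the Shn3 3'UTR in osteoblasts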
[5] = off-target signal loss in HeLa-CEM21 co-culture – HeLa F-luc CTL cells, cherry-picked, counter-screen for HIV-1 Env fusion inhibitor project, dose response (AID 652040); format: functional, cell-based;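 note: potency for signal decrease marking cytotoxic or nonspecific inhibition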
[6] = loss of viability in HepG2 cells – cell-based, CellTiter-Glo, cherry-picked, cytotoxicity control for Shn3 inhibitor project, dose response (AID 624134); format: functional
[7] = viability loss in CEM21 cells – cell-based, CellTiter-Glo luminescence, cherry-picked, cytotoxicity control for viral fusion inhibitor project, dose response (AID 652042); format: functional;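 note: potency for signal decrease meaning cytotoxicity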
[8] = toxicity toward HepG2 liver cells – cell-based, plate reader, cherry-pick, antagonist series, cytotoxicity control, dose response (AID 743416); format: functional
[9] = blockers of bursicon-stimulated LGR2 cAMP reporter – cell-based, HEK293, CRE-luciferase reporter, cherry pick, set 2, dose response (AID 743343); format: functional;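 note: transfected cells were stimulated with diluted bursicon conditioned medium after compound addition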
[10] = A549 cell cytotoxicity, dose response, cytotoxicity control, plate reader, cherry-pick, antagonist series (AID 743412); format: functional, cell-based
[11] = blockade of melanocortin 4 receptor signaling – cell-based, plate reader, cherry pick, counter-screen for LGR2 antagonist project, dose response (AID 743444); format: functional;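 note: transfected HEK 293 cells stimulated with alpha-MSH peptide; potency of inhibitors of the alpha-MSH evoked signal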
[12] = biological target: Paired box protein Pax-8 (Homo sapiens, UniProt Q06710); experiment: PAX8 transcriptional activity inhibition in RMG-I – RMG-I cells, luciferase, cherry-pick, dose response (AID 687027); format: functional, cell-based;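 note: luciferase reporter driven by Pax8 target thyroperoxidase promoter measured by SteadyGlo luminescence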
Chain of Paired box protein Pax-8 (Q06710 whole entry): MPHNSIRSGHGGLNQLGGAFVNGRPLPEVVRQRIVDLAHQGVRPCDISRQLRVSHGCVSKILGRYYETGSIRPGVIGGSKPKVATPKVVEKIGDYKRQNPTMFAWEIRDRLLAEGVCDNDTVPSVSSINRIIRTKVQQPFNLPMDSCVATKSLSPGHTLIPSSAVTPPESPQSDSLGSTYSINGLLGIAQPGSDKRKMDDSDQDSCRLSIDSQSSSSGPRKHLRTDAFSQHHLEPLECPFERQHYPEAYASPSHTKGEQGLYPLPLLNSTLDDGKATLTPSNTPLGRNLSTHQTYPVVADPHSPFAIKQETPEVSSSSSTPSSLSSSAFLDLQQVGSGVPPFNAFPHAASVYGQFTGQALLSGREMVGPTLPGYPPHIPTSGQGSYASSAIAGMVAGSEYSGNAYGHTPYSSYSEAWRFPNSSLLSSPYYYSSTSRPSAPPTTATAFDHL

[13] = NIH3T3 cell viability loss – ATP luminescence, mouse fibroblasts, counter-screen, dose response (AID 2010); format: functional, cell-based; settings: NIH3T3;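 note: cells exposed to compound for about 90 hours before reading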
[14] = tested on: HeLa; experiment: viability loss in HeLa cells – cell-based, ATP luminescence, cherry-pick samples, cytotoxicity control, dose response (AID 687004); format: functional; settings: Homo sapiens
[15] = Trypanosoma cruzi growth suppression in host cells – NIH3T3 host cells, beta-gal luminescence, confirmation (AID 2044); format: functional, cell-based;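 note: intracellular parasites grown in NIH/3T3 mouse fibroblasts as host cells; luminescent beta-galactosidase reporter signal from transgenic T. cruzi replicating inside host cells; inhibitors lower the luminescence signal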
[16] = biological target: Fructose-bisphosphate aldolase (Mycobacterium tuberculosis, UniProt P9WQA3); experiment: Fluorescence-based biochemical high throughput dose response assay for inhibitors of the fructose-bisphosphate aldolase (FBA) of M. tuberculosis.; format: functional
Chain of Fructose-bisphosphate aldolase (P9WQA3 whole entry): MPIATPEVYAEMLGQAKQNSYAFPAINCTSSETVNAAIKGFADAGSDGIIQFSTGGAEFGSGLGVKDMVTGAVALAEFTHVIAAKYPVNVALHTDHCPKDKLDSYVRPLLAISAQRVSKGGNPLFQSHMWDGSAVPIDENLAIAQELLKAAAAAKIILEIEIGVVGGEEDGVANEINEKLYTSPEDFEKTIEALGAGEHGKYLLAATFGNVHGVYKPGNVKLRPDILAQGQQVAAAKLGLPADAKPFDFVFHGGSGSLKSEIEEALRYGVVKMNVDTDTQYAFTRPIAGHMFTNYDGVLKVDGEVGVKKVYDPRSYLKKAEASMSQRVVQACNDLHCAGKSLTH

[17] = viability loss in HepG2 hepatoma cells – cell-based, ATP luminescence, cherry-pick, activator set 2, cytotoxicity control, dose response (AID 1053143); format: functional
[18] = activation of miR-122 Renilla sensor silencing – cell-based, Huh7 psiCHECK-miR122, Renilla luciferase, cherry-picked, dose response (AID 651956); format: functional;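 note: huh7 hepatoma cells stably carrying a psiCHECK-2 miR-122 sensor plasmid; renilla luciferase signal reporting endogenous miR-122 activity after 48 h compound exposure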
[19] = general mammalian cell viability loss – activator set, cherry-pick, cytotoxicity control for miR-122 modulator project, dose response (AID 720690); format: functional, cell-based;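 note: HEK293T human cells scored for general mammalian cytotoxicity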
[20] = general mammalian cell viability loss – inhibitor set, cherry-pick, set 2, cytotoxicity control for miR-122 modulator project, dose response (AID 720697); format: functional, cell-based
[21] = Luminescence Cell-Based Dose Response HTS to Identify Activators of Luciferase Translation or Activity in H4 […] Cells. [Related pubchem assays: 1829 (Project Summary), 1814 (Primary HTS)]; format: functional
[22] = tested on: H4; experiment: Luminescence Cell-Based Dose Response HTS to Identify Activators of 5'UTR Stem-Loop Driven Prion Protein mRNA Translation in H4 Neuroglioblastoma Cells. [Related pubchem assays: 1829 (Project Summary), 1814 (Primary HTS)]; format: functional; settings: Homo sapiens
[23] = Counterscreen for activators of the function of SWI/SNF related, matrix associated, actin dependent regulator of chromatin, subfamily a, member 2 (SMARCA2, BRM): Luminescence-based cell-based high throughput dose response assay to identify non-selective compounds using the VP16 reporter assay.; format: functional
[24] = Luminescence Cell-Based Dose Confirmation HTS to Identify Activators of 5'UTR Stem-Loop Driven Alpha-Synuclein mRNA Translation in H4 Neuroglioblastoma Cells. [Related pubchem assays: 1829 (Project Summary), 1814 (Primary HTS)]; format: functional
[25] = biological target: SWI/SNF-related matrix-associated actin-dependent regulator of chromatin subfamily A member 2 (Homo sapiens, UniProt P51531); experiment: Luminescence-based cell-based high throughput dose response assay to identify activators of the function of SWI/SNF related, matrix associated, actin dependent regulator of chromatin, subfamily a, member 2 (SMARCA2, BRM).; format: functional
Chain of SWI/SNF-related matrix-associated actin-dependent regulator of chromatin subfamily A member 2 (P51531 whole entry): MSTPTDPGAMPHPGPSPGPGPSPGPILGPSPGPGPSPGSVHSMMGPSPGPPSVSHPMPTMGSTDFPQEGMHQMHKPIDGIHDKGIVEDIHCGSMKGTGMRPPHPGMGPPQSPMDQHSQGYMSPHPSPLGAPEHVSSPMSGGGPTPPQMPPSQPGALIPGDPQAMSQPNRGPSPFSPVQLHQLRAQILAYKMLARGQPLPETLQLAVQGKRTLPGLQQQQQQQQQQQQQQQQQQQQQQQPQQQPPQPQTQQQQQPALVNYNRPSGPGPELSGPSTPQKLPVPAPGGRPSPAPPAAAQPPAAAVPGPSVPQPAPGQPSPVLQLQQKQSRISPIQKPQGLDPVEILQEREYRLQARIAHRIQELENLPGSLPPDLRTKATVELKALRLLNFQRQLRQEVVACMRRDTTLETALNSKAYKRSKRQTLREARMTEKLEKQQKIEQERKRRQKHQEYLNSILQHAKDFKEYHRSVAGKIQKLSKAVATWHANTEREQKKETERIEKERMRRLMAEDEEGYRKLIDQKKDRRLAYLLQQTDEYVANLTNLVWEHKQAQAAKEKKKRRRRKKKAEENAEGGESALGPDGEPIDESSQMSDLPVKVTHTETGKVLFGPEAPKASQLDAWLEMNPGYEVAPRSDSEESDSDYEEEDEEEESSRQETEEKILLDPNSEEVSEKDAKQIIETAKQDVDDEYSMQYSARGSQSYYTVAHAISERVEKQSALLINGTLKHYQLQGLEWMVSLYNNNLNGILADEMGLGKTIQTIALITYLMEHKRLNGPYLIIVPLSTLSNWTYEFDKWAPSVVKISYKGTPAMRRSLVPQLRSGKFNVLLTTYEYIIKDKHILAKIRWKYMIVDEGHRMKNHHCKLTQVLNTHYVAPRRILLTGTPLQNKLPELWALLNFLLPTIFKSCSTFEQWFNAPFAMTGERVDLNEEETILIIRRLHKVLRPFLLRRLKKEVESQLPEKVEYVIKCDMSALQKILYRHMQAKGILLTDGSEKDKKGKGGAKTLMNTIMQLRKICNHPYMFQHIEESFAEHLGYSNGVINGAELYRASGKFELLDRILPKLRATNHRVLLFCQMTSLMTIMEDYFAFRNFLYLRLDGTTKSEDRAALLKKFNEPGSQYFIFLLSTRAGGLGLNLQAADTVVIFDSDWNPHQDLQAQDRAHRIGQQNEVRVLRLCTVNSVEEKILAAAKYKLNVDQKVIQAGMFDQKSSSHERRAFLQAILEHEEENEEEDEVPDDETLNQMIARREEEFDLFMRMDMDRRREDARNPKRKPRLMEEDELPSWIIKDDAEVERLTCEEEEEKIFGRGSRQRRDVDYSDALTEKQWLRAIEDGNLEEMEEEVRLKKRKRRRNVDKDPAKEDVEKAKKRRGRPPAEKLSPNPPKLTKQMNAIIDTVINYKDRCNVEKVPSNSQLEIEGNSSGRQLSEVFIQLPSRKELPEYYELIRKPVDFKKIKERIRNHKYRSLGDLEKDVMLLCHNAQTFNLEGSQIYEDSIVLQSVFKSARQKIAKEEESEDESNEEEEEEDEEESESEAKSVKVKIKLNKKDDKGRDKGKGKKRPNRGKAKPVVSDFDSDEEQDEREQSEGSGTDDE

[26] = biological target: Albumin (Bos taurus, UniProt P02769); experiment: Counterscreen for inhibitors of T-cell receptor (TCR)-CD3 interaction: Fluorescence-based biochemical high throughput dose response assay to identify inhibitors of T-cell receptor (TCR)-CD3 interaction using a TAMRA-labeled BSA probe.; format: functional
Chain of Albumin (P02769 whole entry): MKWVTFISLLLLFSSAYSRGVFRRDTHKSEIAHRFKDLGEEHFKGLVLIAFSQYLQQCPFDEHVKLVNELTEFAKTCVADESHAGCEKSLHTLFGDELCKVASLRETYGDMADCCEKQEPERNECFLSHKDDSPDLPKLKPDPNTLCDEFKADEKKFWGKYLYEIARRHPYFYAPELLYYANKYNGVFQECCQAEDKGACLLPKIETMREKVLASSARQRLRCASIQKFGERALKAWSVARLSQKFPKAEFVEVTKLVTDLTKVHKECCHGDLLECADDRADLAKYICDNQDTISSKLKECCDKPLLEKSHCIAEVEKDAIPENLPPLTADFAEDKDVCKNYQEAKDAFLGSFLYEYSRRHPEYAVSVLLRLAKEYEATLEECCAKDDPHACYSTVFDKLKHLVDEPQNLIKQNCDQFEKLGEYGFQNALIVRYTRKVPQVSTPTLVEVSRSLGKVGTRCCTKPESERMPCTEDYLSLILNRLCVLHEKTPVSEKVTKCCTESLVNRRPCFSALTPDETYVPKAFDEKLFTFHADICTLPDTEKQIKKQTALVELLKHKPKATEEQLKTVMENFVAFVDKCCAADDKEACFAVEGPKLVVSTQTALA

[27] = biological target: T1, SUMO-activating enzyme (Homo sapiens, UniProt Q9UBT2); experiment: blockers of SAE1/SAE2–UBC9 SUMO transfer – biochemical, HTRF, uHTS, primary screen (AID 2006); format: protein-complex assay
T1 sequence (Q9UBE0 whole entry): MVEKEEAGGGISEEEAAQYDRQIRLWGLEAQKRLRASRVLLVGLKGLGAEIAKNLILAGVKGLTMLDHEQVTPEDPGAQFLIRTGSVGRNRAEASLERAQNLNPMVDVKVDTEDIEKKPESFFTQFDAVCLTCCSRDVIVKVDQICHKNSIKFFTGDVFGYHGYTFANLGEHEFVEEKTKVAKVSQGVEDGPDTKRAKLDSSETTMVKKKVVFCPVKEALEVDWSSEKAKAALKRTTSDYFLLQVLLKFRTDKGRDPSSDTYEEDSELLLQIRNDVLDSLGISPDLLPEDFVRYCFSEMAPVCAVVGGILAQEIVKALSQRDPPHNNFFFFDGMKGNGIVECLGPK
T1 sequence (Q9UBT2 whole entry): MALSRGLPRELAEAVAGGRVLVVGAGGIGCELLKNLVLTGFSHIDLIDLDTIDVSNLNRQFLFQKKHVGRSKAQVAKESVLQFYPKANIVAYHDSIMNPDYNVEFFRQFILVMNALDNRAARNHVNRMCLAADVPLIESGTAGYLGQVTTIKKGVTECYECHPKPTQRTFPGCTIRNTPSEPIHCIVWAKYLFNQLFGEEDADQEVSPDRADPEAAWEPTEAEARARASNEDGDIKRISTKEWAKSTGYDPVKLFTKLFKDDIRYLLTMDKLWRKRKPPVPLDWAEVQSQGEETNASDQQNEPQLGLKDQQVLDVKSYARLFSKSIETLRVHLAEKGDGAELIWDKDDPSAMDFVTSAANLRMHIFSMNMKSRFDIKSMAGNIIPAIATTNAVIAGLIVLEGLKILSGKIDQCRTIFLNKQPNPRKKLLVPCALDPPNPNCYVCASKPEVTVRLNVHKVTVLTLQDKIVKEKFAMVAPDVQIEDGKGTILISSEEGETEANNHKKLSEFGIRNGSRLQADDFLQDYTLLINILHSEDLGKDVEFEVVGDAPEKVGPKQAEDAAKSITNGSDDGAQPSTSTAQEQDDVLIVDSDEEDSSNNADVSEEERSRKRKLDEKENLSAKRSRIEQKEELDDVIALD

[28] = biological target: T1, SUMO-activating enzyme; experiment: blockers of UBC9-mediated SUMO conjugation – biochemical, AlphaScreen, SUMOylation inhibitor project, confirmation (AID 2018); format: functional

With `O=C(Nc1cccc(-c2ccc(N3CCCCC3)nn2)c1)C(F)(F)F` the AC50 [1] was 6.31 µM (active), the AC50 [2] was 34.1 µM (active) and the AC50 [3] was 3.47 µM (active). The AC50 [4] was 9.07 µM (active), the AC50 [5] was 9.6 µM (active) and the AC50 [6] was 33.1 µM (active). For the same compound, the AC50 [7] was 34.1 µM (active), the AC50 [8] was 43.6 µM (active) and the AC50 [9] was 2.61 µM (active). The AC50 [10] was 30.2 µM (active), the AC50 [11] was 1.41 µM (active) and the AC50 [12] was 3.04 µM (active).

With `CCOc1ccc(C(=O)NC(=S)Nc2ccccc2N2CCC(C)CC2)cc1[N+](=O)[O-]` the EC50 [13] was > 60 µM (not active), the AC50 [14] was > 52 µM (inactive) and the EC50 [15] was 1.32 µM (active).

With `Cc1ccc(-c2nc3ncccc3o2)cc1NC(=O)C(C)C` the IC50 [16] was 1.5 µM (active).

In the case of `O=C(NCCOc1ccccc1F)C1CC(=O)N(Cc2ccccc2)C1` (centres undefined), the AC50 [17] is reported as > 52 µM (inactive).

For `C[C@@H]1CN([C@@H](C)CO)C(=O)c2cc(NC(=O)Nc3cccc4ccccc34)ccc2O[C@@H](C)CCCCO[C@@H]1CN(C)CC1CCCCC1`, the AC50 [18] was 11.6 µM (active), the AC50 [19] was 30.5 µM (active) and the AC50 [20] was 6.05 µM (active).

With `CC(=O)Nc1ccc2c(c1)C(=O)N(C)[C@@H]1CC[C@H](CC(=O)NC3CCCCC3)O[C@H]1CO2` the AC50 [20] was 0.457 µM (active).

For `CC(C)c1ccc(/C=N/NC(=O)c2c(Cl)cnn2C)cc1`, the EC50 [21] was 0.251 µM (active), the EC50 [22] was 27.5 µM (active) and the EC50 [23] was > 91.2 µM (inactive). For the same compound, the EC50 [24] was 9.9 µM (active) and the EC50 [25] was > 91.2 µM (inactive).

For `Cc1c(NC(=S)N/N=C/c2cc([N+](=O)[O-])ccc2O)c(=O)n(-c2ccccc2)n1C`, the IC50 [26] was > 94.1 µM (inactive), the IC50 [27] was 11.4 µM (active) and the IC50 [28] was 1.64 µM (active).
